The source of these data is patent publication US8858962B2, “Adjuvant or pharmaceutical preparation for transdermal or transmucosal administration” (priority 2005, dated 2014).

The test system of data set [1] is OVA-specific IgG antibody. The experiment in a line: OVA-specific IgG antibody titer; microneedles coated with antigen emulsion (FIG. 5). The data set is classed as in vivo, BALB/c mice. The following applies: OVA 0.1 mg/patch; microneedles coated with emulsion 1:1:0.01 (Tween 80); punctured 2 hours. As to the method:
Furthermore, for microneedle groups (OVA+lauryl alcohol or oleyl alcohol) microneedle needles were coated with an emulsion [antigen solution:olive oil or lauryl alcohol:surfactant (Tween 80)=1:1:0.01], and puncturing was carried out for 2 hours. Administering was carried out at 0, 2, and 4 W, blood was collected at 2, 4, and 5 W, and the OVA-specific IgG antibody titer was measured by ELISA.

The subject of another data set is BALB/c mice. The experiment in a line: Skin irritation score, intradermal vs transdermal administration. Type of data set: in vivo.
In another data set the test system is MHC Class II molecules. In words: Intensity of expression of MHC Class II molecules by lymph cells after transdermal adjuvant (flow cytometry, FIG. 1). To be noted: for lymph cell count: 50 uL of acetone solution (50%) on shaved abdomen, lymph node removed 5 days later. The data set is classed as in vivo, BALB/c mice. As to the method: On the other hand, for a group for which an antigen hapten was used in combination, 50 uL of a 1:1 mixture of an FITC solution (5 mg/mL in acetone) and a solution of the adjuvant was transdermally administered to the abdomen. 5 days later, lymph node (cervix, groin) was removed, and the intensity of expression of MHC Class II molecules by lymph cells was analyzed by flow cytometry (FIG. 1).
Background: Flow cytometry measures light scatter and fluorescence of single cells or particles in a stream.

Data set [2] has as its system OVA-specific IgG antibody. The experiment in a line: OVA-specific IgG antibody titer; antigen-coated microneedles with LA applied in advance (FIG. 3). Type of data set: in vivo, hairless rats. To be noted: OVA 2 mg/patch on coated microneedles, punctured 2 hours. As to the method:
OVA was adjusted to give 2 mg/patch, a needle portion of microneedles was coated with the antigen and 5% polyvinyl alcohol liquid, and for a microneedle group the abdomen of 7 to 8 W male hairless rats was punctured for 2 hours with physiological saline dropped onto the skin side. For a microneedle+lauryl alcohol group, LA was applied in advance, physiological saline was dropped onto the skin side, and it was punctured for 2 hours with microneedle needles coated with the antigen and 5% polyvinyl alcohol liquid. Administration was carried out at 0, 2, and 4 W, blood was collected at 2, 4, and 5 W, and the OVA-specific IgG antibody titer was measured by ELISA.

In data set [3] the test system is OVA-specific IgG antibody. In words: OVA-specific IgG antibody titer; OVA/LA emulsion with microneedle, skin abrasion or iontophoresis (FIG. 2). The data set is classed as in vivo, BALB/c mice. To be noted: OVA 100 ug/head; OVA solution:LA:Tween 20 1:1:0.01; IP, MN, Skin Prep modes; 4 W data. As to the method: OVA (ovalbumin antigen) was adjusted to give 100 ug/head, for an OVA-only group an OVA aqueous solution was applied, and for a group in which lauryl alcohol (LA) was used in combination, an emulsified solution formed by mixing the OVA solution, LA and Tween 20 (emulsifier) at 1:1:0.01 was used. For the microneedle group, the pre-shaved abdomen skin was punctured with 1 cm^2 of microneedles (needle length about 200 um, 400 needles/cm^2), and immediately after this 50 uL of the above-mentioned emulsion solution was applied. For the skin abrasion treatment group, instead of the microneedles, the skin was abraded 5 times with 3M RED Dot™ 2236 and 50 uL of the emulsion solution was applied. For the iontophoresis group, after the shaven abdomen skin was coated with 50 uL of the emulsion solution, an iontophoresis preparation (nonwoven cloth preparation: Ag, Ag/AgCl 1 cm^2) formed by impregnating a nonwoven cloth with physiological saline was affixed to the coated site, and direct current (0.4 mA/patch) was applied for 1 hour. Administration was carried out at 0, 2, and 4 W, blood was collected at 2, 4, and 5 W, and the OVA-specific IgG antibody titer was measured by ELISA.

Data set [4] has as its system OVA-specific IgG antibody. In words: OVA-specific IgG antibody titer by ELISA; OVA intradermal plus adjuvant transdermal. The data set is classed as in vivo, BALB/c mice. To be noted: for Antibody titer (×10^4): OVA 10 ug/head intradermal, 25 uL adjuvant transdermal, dosing at 0, 2, 4 W, 5 W data; for antigen IgG immune response: intradermal ovalbumin plus transdermal adjuvant on intact skin. The procedure: OVA was dissolved in physiological saline and adjusted to give 10 ug/head, and for an OVA-only group 25 uL of the OVA aqueous solution was intradermally administered. For groups in which there was combined use with various types of adjuvant, immediately after the OVA solution was intradermally administered, 25 uL of the adjuvant solution was transdermally administered (coated) via the skin surface of the abdomen. Administration was carried out at 0, 2, and 4 W, blood was collected at 2, 4, and 5 W, and the OVA-specific IgG antibody titer after 2, 4, and 5 W was measured by ELISA.

In data set [5] the test system is OVA-specific IgG antibody. In words: OVA-specific IgG antibody titer; microneedles coated with antigen emulsion (FIG. 4). The data set is classed as in vivo, hairless rats. To be noted: OVA 2 mg/patch; microneedles coated with emulsion antigen:oil or alcohol:Tween 80 1:1:0.01; punctured 2 hours. The procedure: OVA was adjusted to give 2 mg/patch, and for a microneedle group (OVA+5% polyvinyl alcohol), the abdomen of 7 to 8 W male hairless rats was punctured for 2 hours with a needle portion of microneedles coated with antigen and 5% polyvinyl alcohol liquid [mixed at antigen solution:10% polyvinyl alcohol=1:1]. Furthermore, for microneedle groups (OVA+olive oil) or (OVA+lauryl alcohol), microneedle needles were coated with an emulsion [antigen solution:olive oil or lauryl alcohol:surfactant (Tween 80)=1:1:0.01], and puncturing was carried out for 2 hours. Administration was carried out at 0, 2, and 4 W, blood was collected at 2, 4, and 5 W, and the OVA-specific IgG antibody titer was measured by ELISA.

In the next data set the test system is OVA. The experiment in a line: Effect of LA adjuvant in administration via oral mucous membrane, antibody titer (FIG. 7). The following applies: OVA 2500 ug/head; antigen solution:LA:Tween 80 8:2:0.05 and 5:5:0.05; blood after 2 weeks. Type of data set: in vivo, BALB/c mice.

As for `CCCCCCCCCCCCO` [Lauryl alcohol, lauryl alcohol], the “OVA-specific IgG antibody titer” value in data set [1] is given as “increased remarkably”; in data set [2], “increased,remarkably”; in data set [3], “significant increase”; in data set [5], “increased remarkably”. Further, the “skin irritation on transdermal administration” value (“skin irritation” below) in the data set on BALB/c mice was “did not cause skin irritation”. For the same compound, the lymph cell count entry in the data set with MHC Class II molecules is reported as “remarkable increase”. Further, the “adjuvant effect in transdermal administration” value in the data set on MHC Class II molecules (comparison among adjuvants) is “most outstanding adjuvant effect”. For the same compound, in data set [4], the “Antibody titer (×10^4)” value is on record as 2.1 ×10^4. In addition, in data set [4], the “antigen IgG immune response” value is “highest immune response”. Also, in the data set with OVA, the “antibody titer, oral mucous membrane administration” value is on record as “increased in response to the LA concentration”.

In the case of polyethylene glycol monolaurate, in the data set on BALB/c mice, the “skin irritation” value is on record as “did not cause skin irritation”. The “Antibody titer (×10^4)” value in data set [4] is 0.9 ×10^4.

`CCCCCCCC/C=C\CCCCCCCCO` [Oleyl alcohol, oleyl alcohol]: in data set [1], the “OVA-specific IgG antibody titer” value is “increased remarkably”. Further, the “skin irritation” value in the data set with BALB/c mice is listed as “did not cause skin irritation”. Further, the lymph cell count entry with MHC Class II molecules is “remarkable increase”. Also, in data set [4], the “Antibody titer (×10^4)” value was 2.1 ×10^4 and the “antigen IgG immune response” value was “highest immune response”.

Regarding `CC(C)CCCCCCCCCCCCCCCO` [Isostearyl alcohol, isostearyl alcohol], the “skin irritation” value with BALB/c mice is “did not cause skin irritation”. The lymph cell count entry with MHC Class II molecules was “remarkable increase”. In addition, the “Antibody titer (×10^4)” value in data set [4] was 1.3 ×10^4.

Regarding sorbitan monooleate, the lymph cell count entry in the data set with MHC Class II molecules was “remarkable increase”.

For `CCCCCCCC/C=C\CCCCCCCC(=O)O` [oleic acid], the lymph cell count entry in the data set on MHC Class II molecules is “remarkable increase”.

In the case of `CCCCCCCCCCC(CO)CCCCCCCC` (centres unmarked) [Octyldodecanol, octyldodecanol], the “skin irritation” value with BALB/c mice was “did not cause skin irritation”. The “Antibody titer (×10^4)” value in data set [4] is 0.6 ×10^4.

Consider sorbitan monolaurate, for which the “skin irritation” value in the data set with BALB/c mice is reported as “did not cause skin irritation”. Also, the lymph cell count result in the data set with MHC Class II molecules is given as “remarkable increase”.
